Test results from the CheMixHub viscosity set.

Assay: xn = mol fraction of the nth substance listed

CCCCC(=O)OCC + CCCCCCO
viscosity [mPa·s], 101.33 kPa
Details	x1 = 0.1071	x1 = 0.2022	x1 = 0.3018	x1 = 0.3929	x1 = 0.5117	x1 = 0.6028	x1 = 0.7035	x1 = 0.8025	x1 = 0.9053
293.15 K	3.938	3.209	2.61	2.177	1.74	1.483	1.258	1.086	0.946
303.15 K	3.004	2.46	2.012	1.688	1.362	1.17	1.002	0.873	0.769
313.15 K	2.257	1.873	1.558	1.329	1.1	0.964	0.846	0.755	0.682

CCCCCCCO + CCCCCCO
viscosity [mPa·s], 101.8 kPa
Details	x2 = 0.1128	x2 = 0.3611	x2 = 0.5306	x2 = 0.6915	x2 = 0.9117
298.15 K	5.786	5.339	5.173	4.875	4.5
308.15 K	4.235	3.946	3.829	3.625	3.347
318.15 K	3.16	2.963	2.879	2.737	2.535

CS(C)=O + CCCCCCO
101 kPa
Details	viscosity [mPa·s]
303.15 K, x1 = 0.1678	2.991
303.15 K, x1 = 0.1907	2.831
303.15 K, x1 = 0.3273	2.582
303.15 K, x1 = 0.3639	2.288
303.15 K, x1 = 0.4458	2.342
303.15 K, x1 = 0.522	2.088
303.15 K, x1 = 0.5483	2.171
303.15 K, x1 = 0.64	2.061
303.15 K, x1 = 0.6669	1.898
303.15 K, x1 = 0.7228	1.983
303.15 K, x1 = 0.8002	1.739
303.15 K, x1 = 0.8098	1.901
303.15 K, x1 = 0.8795	1.827
303.15 K, x1 = 0.9231	1.722
303.15 K, x1 = 0.9413	1.754
313 K, x1 = 0.1163	2.459
313 K, x1 = 0.203	2.239
313 K, x1 = 0.4013	1.891
313 K, x1 = 0.4964	1.793
313 K, x1 = 0.5978	1.719
313 K, x1 = 0.6873	1.666
313 K, x1 = 0.7968	1.593
313 K, x1 = 0.9124	1.574

CCCCC(=O)OCC + CCCCCO
viscosity [mPa·s], 101.33 kPa
Details	x1 = 0.1037	x1 = 0.1921	x1 = 0.3001	x1 = 0.4089	x1 = 0.5015	x1 = 0.6062	x1 = 0.7081	x1 = 0.8013	x1 = 0.9029
293.15 K	3.302	2.761	2.241	1.841	1.575	1.34	1.163	1.036	0.927
303.15 K	2.379	2.008	1.651	1.377	1.195	1.033	0.912	0.825	0.749
313.15 K	1.887	1.61	1.344	1.139	1.004	0.884	0.793	0.728	0.672

CC(C)=CC(=O)C=C(C)C + CCCCCOC(C)=O
298.15 K, 101 kPa
Details	viscosity [mPa·s]
x1 = 0.078	0.813
x1 = 0.142	0.834

CCCCC + CCCCCl
298 K, 101.3 kPa
Details	viscosity [mPa·s]
x1 = 0.1016	0.4004
x1 = 0.2097	0.372
x1 = 0.2358	0.3641
x1 = 0.403	0.3274
x1 = 0.5062	0.3054
x1 = 0.6042	0.287
x1 = 0.7007	0.2701
x1 = 0.7975	0.2558
x1 = 0.8963	0.2391

CCCCC + CCCCO
298.15 K, 101 kPa
Details	viscosity [mPa·s]
x2 = 0.1233	0.258
x2 = 0.2435	0.319
x2 = 0.4175	0.481
x2 = 0.4935	0.609
x2 = 0.5883	0.809
x2 = 0.6892	1.042
x2 = 0.7941	1.44
x2 = 0.869	1.832

CCCCCCCCn1cc[n+](C)c1.O=[N+]([O-])[O-] + CCCCO
Details	viscosity [mPa·s]
293.15 K, 101 kPa, x2 = 0.168	378.7

CCCCCCCO + CCCCO
viscosity [mPa·s], 101 kPa
Details	298.15 K	308.15 K	318.15 K
x2 = 0.08	5.586	4.11	3.063
x2 = 0.15	5.398	3.965	2.971
x2 = 0.22	5.211	3.829	2.883
x2 = 0.28	5.027	3.7	2.798
x2 = 0.34	4.844	3.576	2.714
x2 = 0.4	4.664	3.456	2.632
x2 = 0.46	4.487	3.34	2.551
x2 = 0.51	4.313	3.226	2.47
x2 = 0.56	4.142	3.115	2.391
x2 = 0.61	3.976	3.004	2.312
x2 = 0.66	3.813	2.894	2.233
x2 = 0.7	3.654	2.785	2.155
x2 = 0.74	3.499	2.677	2.077
x2 = 0.79	3.348	2.57	2
x2 = 0.82	3.201	2.463	1.923
x2 = 0.86	3.058	2.359	1.847
x2 = 0.9	2.919	2.256	1.772
x2 = 0.93	2.783	2.157	1.698
x2 = 0.97	2.652	2.061	1.627
